Our source for the IC50 values is US20180369210A1, “METHODS AND COMPOSITIONS FOR TREATING LYSOSOMAL STORAGE DISORDERS” (Lysosomal Therapeutics Inc., priority 2015, published 2018).

By IC50 is commonly meant the concentration at which inhibition is half-maximal.

The target in the test is T1, acid ceramidase (Homo sapiens, UniProt Q13510).
T1 sequence (Q13510 22-395): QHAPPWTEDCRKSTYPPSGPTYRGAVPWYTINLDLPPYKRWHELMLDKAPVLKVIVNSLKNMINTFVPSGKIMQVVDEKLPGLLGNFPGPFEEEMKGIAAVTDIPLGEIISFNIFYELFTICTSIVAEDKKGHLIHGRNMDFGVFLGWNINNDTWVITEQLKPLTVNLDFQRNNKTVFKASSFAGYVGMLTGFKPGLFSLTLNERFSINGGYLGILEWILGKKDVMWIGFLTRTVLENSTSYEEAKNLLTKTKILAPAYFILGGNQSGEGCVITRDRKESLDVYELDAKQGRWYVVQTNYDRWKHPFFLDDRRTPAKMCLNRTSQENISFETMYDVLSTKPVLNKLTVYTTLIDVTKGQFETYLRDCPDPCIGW
The test can be described thus: Acid ceramidase fluorescent intensity assay with fluorogenic substrate Rbm 14-12. The format is biochemical. The following applies: cell lysates enriched with acid ceramidase; 1 hour preincubation; substrate Rbm 14-12 6.3 μM; pH 4.5; room temperature, 1 or two hours; read-out: average IC50 value for the 1 and 2 hour time points, inhibition of acid ceramidase activity. The protocol:
Inhibition of acid ceramidase activity by compound 25 of Table 2 was evaluated in a fluorescent intensity assay using a fluorogenic substrate Rbm 14-12 […]. Compound 25 was incubated with cell lysates enriched with acid ceramidase for 1 hour in an assay buffer containing 50 mM NaOAc and 100 mM NaCl at pH 4.5. The reaction was initiated by the addition of the substrate at a final concentration of 6.3 μM and the mixture was incubated at room temperature for 1 or two hours. At the appropriate time, the reaction was quenched by the addition of methanol and treated with NaIO4 (fresh 2.5 mg/ml solution was made in 100 mM glycine/NaOH buffer, pH 10.6), followed by incubation for 1 hour at room temperature. Fluorescent intensity was measured using a plate reader at ex 355 nm and em 460 nm.

As for `O=C(NCCCCc1ccccc1)n1c(=O)oc2cc(-c3ccc(F)cc3)ccc21` [Compound 25, 6-(4-fluorophenyl)-2-oxo-N-(4-phenylbutyl)-1,3-benzoxazole-3-carboxamide], the half-inhibitory concentration (IC50) is 0.25 to 0.5 µM.
